The numbers were not newly measured in patent US20210268271A1, “SYSTEMS AND METHODS FOR VISCERAL NEUROMODULATION” (priority 2018, published 2021), which cites them from elsewhere.

Series [1] deals with TRPV1 expressing cardiac nerve endings. As to conditions: in vivo.

Take `C[C@H](CCCC(C)(C)O)[C@H]1CC[C@H]2[C@@H]3CC=C4C[C@@H](O)CC[C@]4(C)[C@H]3CC[C@]12C` [25-OH-cholesterol]: the “relative potency among cholesterol oxides” value with sympathetic ganglia was “most potent”.

Regarding `C=C(C)[C@]12C[C@@H](C)[C@@]34O[C@](Cc5ccccc5)(O[C@@H]1[C@@H]3C=C(COC(=O)Cc1ccc(O)c(OC)c1)C[C@]1(O)C(=O)C(C)=C[C@@H]41)O2` [RTX, resiniferatoxin], the “duration of complete ablation of TRPV1 expressing cardiac nerve endings” value in series [1] is “over 10 weeks”.

Turning to `CCCCN1CCCCC1C(=O)Nc1c(C)cccc1C` (stereo not shown) [bupivacaine], the duration of block result with deep cardiac plexus is given as “approximately 2 hours”.

On to `CCN(CC)CC(=O)Nc1c(C)cccc1C` [lidocaine], for which, in the series with deep cardiac plexus, the duration of block entry was “approximately 2 hours”.
